Source: the CheMixHub viscosity set

Assay: xn = mol fraction of the nth substance listed

CN(C)C=O + CCCO
viscosity [mPa·s], 101 kPa
Details | 293.15 K | 298.15 K | 303.15 K | 308.15 K | 313.15 K | 318.15 K | 323.15 K
x1 = 0.4512 | – | 1.232 | – | – | – | – | –
x1 = 0.5 | – | – | 0.893 | – | 0.764 | – | 0.655
x2 = 0.1001 | – | – | 0.7821 | 0.7366 | 0.6955 | 0.6569 | 0.6217
x2 = 0.1007 | 0.9529 | – | 0.8538 | – | 0.7741 | – | 0.7068
x2 = 0.2001 | – | – | 0.8111 | 0.7618 | 0.7167 | 0.6752 | 0.638
x2 = 0.2026 | 0.9902 | – | 0.8826 | – | 0.7929 | – | 0.7215
x2 = 0.2518 | 1.01 | – | 0.8911 | – | 0.7973 | – | 0.7241
x2 = 0.3 | – | – | 0.8451 | 0.7912 | 0.742 | 0.698 | 0.657
x2 = 0.3548 | 1.03 | – | 0.9064 | – | 0.8052 | – | 0.7257
x2 = 0.3967 | – | – | 0.8868 | 0.8273 | 0.7741 | 0.7256 | 0.6801
x2 = 0.5002 | – | – | 0.9267 | 0.8623 | 0.8042 | 0.7517 | 0.7022
x2 = 0.5007 | 1.109 | – | 0.9588 | – | 0.84 | – | 0.7422
x2 = 0.5008 | 1.127 | – | 0.977 | – | 0.8569 | – | 0.7593
x2 = 0.5981 | – | – | – | – | 0.8728 | – | –
x2 = 0.5982 | 1.175 | – | 1.01 | – | – | – | 0.7643
x2 = 0.6 | – | – | 0.9903 | 0.9169 | 0.8505 | 0.7912 | 0.7367
x2 = 0.6981 | 1.315 | – | 1.112 | – | 0.9521 | – | 0.8239
x2 = 0.7001 | – | – | 1.076 | 0.9904 | 0.9148 | 0.8466 | 0.784
x2 = 0.75 | 1.368 | – | 1.146 | – | 0.9688 | – | 0.8261
x2 = 0.7989 | 1.476 | – | 1.231 | – | 1.037 | – | 0.8829
x2 = 0.8001 | – | – | 1.204 | 1.1 | 1.008 | 0.9264 | 0.8521
x2 = 0.8981 | 1.734 | – | 1.412 | – | 1.164 | – | 0.9688
x2 = 0.9001 | – | – | 1.403 | 1.272 | 1.153 | 1.074 | 0.955

c1ccccc1 + CCCO
Details | viscosity [mPa·s]
293.15 K, 101 kPa, x1 = 0.7 | 0.7259
295.15 K, 101 kPa, x2 = 0.0129 | 0.6231
295.15 K, 101 kPa, x2 = 0.01297 | 0.6234
295.15 K, 101 kPa, x2 = 0.02571 | 0.6203
295.15 K, 101 kPa, x2 = 0.0258 | 0.6203
295.15 K, 101 kPa, x2 = 0.02588 | 0.6203
295.15 K, 101 kPa, x2 = 0.03494 | 0.6193
295.15 K, 101 kPa, x2 = 0.04358 | 0.6193
295.15 K, 101 kPa, x2 = 0.06103 | 0.6204
295.15 K, 101 kPa, x2 = 0.1016 | 0.6265
295.15 K, 101 kPa, x2 = 0.2458 | 0.6758
295.15 K, 101 kPa, x2 = 0.5664 | 0.9778
295.15 K, 101 kPa, x2 = 0.9204 | 1.808
298.15 K, 100 kPa, x2 = 0.059 | 0.6108
298.15 K, 100 kPa, x2 = 0.1169 | 0.6226
298.15 K, 100 kPa, x2 = 0.2295 | 0.6135
298.15 K, 100 kPa, x2 = 0.2843 | 0.6582
298.15 K, 100 kPa, x2 = 0.3733 | 0.7116
298.15 K, 100 kPa, x2 = 0.5437 | 0.8989
298.15 K, 100 kPa, x2 = 0.6252 | 1.017
298.15 K, 100 kPa, x2 = 0.7044 | 1.166
298.15 K, 100 kPa, x2 = 0.7814 | 1.289
298.15 K, 100 kPa, x2 = 0.8563 | 1.469
298.15 K, 100 kPa, x2 = 0.9291 | 1.719
298.15 K, 101 kPa, x1 = 0.062 | 1.707
298.15 K, 101 kPa, x1 = 0.1398 | 1.471
298.15 K, 101 kPa, x1 = 0.295 | 1.132
298.15 K, 101 kPa, x1 = 0.388 | 0.988
298.15 K, 101 kPa, x1 = 0.4349 | 0.565
298.15 K, 101 kPa, x1 = 0.4661 | 0.887
298.15 K, 101 kPa, x1 = 0.5335 | 0.394
298.15 K, 101 kPa, x1 = 0.5337 | 0.805
298.15 K, 101 kPa, x1 = 0.6049 | 0.741
298.15 K, 101 kPa, x1 = 0.6086 | 0.4578
298.15 K, 101 kPa, x1 = 0.7128 | 0.657
298.15 K, 101 kPa, x1 = 0.806 | 0.626
298.15 K, 101 kPa, x1 = 0.89 | 0.604
298.15 K, 101.3 kPa, x1 = 0.1571 | 1.435
298.15 K, 101.3 kPa, x1 = 0.3573 | 1.018
298.15 K, 101.3 kPa, x1 = 0.5287 | 0.797
298.15 K, 101.3 kPa, x1 = 0.7516 | 0.637
298.15 K, 101.33 kPa, x1 = 0.1571 | 1.435
298.15 K, 101.33 kPa, x1 = 0.2757 | 1.167
298.15 K, 101.33 kPa, x1 = 0.3573 | 1.018
298.15 K, 101.33 kPa, x1 = 0.5287 | 0.797
298.15 K, 101.33 kPa, x1 = 0.6446 | 0.703
298.15 K, 101.33 kPa, x1 = 0.7516 | 0.637
298.15 K, 101.33 kPa, x1 = 0.8737 | 0.599
298.15 K, 101.33 kPa, x1 = 0.9369 | 0.592
298.15 K, 101.33 kPa, x2 = 0.2 | 0.622
303.15 K, 101 kPa, x1 = 0.062 | 1.522
303.15 K, 101 kPa, x1 = 0.1398 | 1.319
303.15 K, 101 kPa, x1 = 0.295 | 1.021
303.15 K, 101 kPa, x1 = 0.388 | 0.892
303.15 K, 101 kPa, x1 = 0.4661 | 0.808
303.15 K, 101 kPa, x1 = 0.5337 | 0.737
303.15 K, 101 kPa, x1 = 0.6049 | 0.68
303.15 K, 101 kPa, x1 = 0.7128 | 0.609
303.15 K, 101 kPa, x1 = 0.806 | 0.58
303.15 K, 101 kPa, x1 = 0.89 | 0.566
308.15 K, 100 kPa, x2 = 0.059 | 0.5422
308.15 K, 100 kPa, x2 = 0.1169 | 0.5507
308.15 K, 100 kPa, x2 = 0.2295 | 0.5825
308.15 K, 100 kPa, x2 = 0.2843 | 0.5616
308.15 K, 100 kPa, x2 = 0.3733 | 0.6014
308.15 K, 100 kPa, x2 = 0.5437 | 0.7483
308.15 K, 100 kPa, x2 = 0.6252 | 0.8508
308.15 K, 100 kPa, x2 = 0.7044 | 0.9663
308.15 K, 100 kPa, x2 = 0.7814 | 1.098
308.15 K, 100 kPa, x2 = 0.8563 | 1.267
308.15 K, 100 kPa, x2 = 0.9291 | 1.405
308.15 K, 101 kPa, x1 = 0.062 | 1.369
308.15 K, 101 kPa, x1 = 0.1398 | 1.182
308.15 K, 101 kPa, x1 = 0.295 | 0.921
308.15 K, 101 kPa, x1 = 0.388 | 0.81
308.15 K, 101 kPa, x1 = 0.4661 | 0.736
308.15 K, 101 kPa, x1 = 0.5337 | 0.678
308.15 K, 101 kPa, x1 = 0.6049 | 0.63
308.15 K, 101 kPa, x1 = 0.7128 | 0.566
308.15 K, 101 kPa, x1 = 0.806 | 0.541
308.15 K, 101 kPa, x1 = 0.89 | 0.527
308.15 K, 101.3 kPa, x1 = 0.1571 | 1.155
308.15 K, 101.3 kPa, x1 = 0.3573 | 0.834
308.15 K, 101.3 kPa, x1 = 0.5287 | 0.668
308.15 K, 101.3 kPa, x1 = 0.7516 | 0.552
308.15 K, 101.33 kPa, x1 = 0.1571 | 1.155
308.15 K, 101.33 kPa, x1 = 0.3573 | 0.834
308.15 K, 101.33 kPa, x1 = 0.5287 | 0.668
308.15 K, 101.33 kPa, x1 = 0.7516 | 0.552
313.15 K, 101 kPa, x1 = 0.062 | 1.225
313.15 K, 101 kPa, x1 = 0.1398 | 1.061
313.15 K, 101 kPa, x1 = 0.295 | 0.835
313.15 K, 101 kPa, x1 = 0.388 | 0.739
313.15 K, 101 kPa, x1 = 0.4661 | 0.674
313.15 K, 101 kPa, x1 = 0.5337 | 0.623
313.15 K, 101 kPa, x1 = 0.6049 | 0.582
313.15 K, 101 kPa, x1 = 0.7 | 0.5283
313.15 K, 101 kPa, x1 = 0.7128 | 0.528
313.15 K, 101 kPa, x1 = 0.806 | 0.503
313.15 K, 101 kPa, x1 = 0.89 | 0.493
318.15 K, 101 kPa, x1 = 0.062 | 1.103
318.15 K, 101 kPa, x1 = 0.1398 | 0.956
318.15 K, 101 kPa, x1 = 0.295 | 0.76
318.15 K, 101 kPa, x1 = 0.388 | 0.676
318.15 K, 101 kPa, x1 = 0.4661 | 0.617
318.15 K, 101 kPa, x1 = 0.5337 | 0.572
318.15 K, 101 kPa, x1 = 0.6049 | 0.539
318.15 K, 101 kPa, x1 = 0.7128 | 0.493
318.15 K, 101 kPa, x1 = 0.806 | 0.47
318.15 K, 101 kPa, x1 = 0.89 | 0.463
323.15 K, 101.33 kPa, x2 = 0.2 | 0.44
